Measured values from ChEMBL document CHEMBL6092154, “Design, synthesis, and evaluation of a novel TRAIL-activated HDAC6 inhibitor for the treatment of pulmonary fibrosis” (Bioorg Med Chem, 2024).
Activity calls are given as the source filed them. The calls are words filed in the database; no cut-off is given here.

What was measured:
[1] = target: T1, Protein deacetylase HDAC6 (Homo sapiens) (UniProt Q9UBN7); experiment: Inhibition of HDAC6 in human RPMI-8226 cells assessed as increase in acetylated alpha-tubulin level at 1 uM incubated for 24 hrs by western blot analysis; assay type: cell-based
T1 sequence (whole entry): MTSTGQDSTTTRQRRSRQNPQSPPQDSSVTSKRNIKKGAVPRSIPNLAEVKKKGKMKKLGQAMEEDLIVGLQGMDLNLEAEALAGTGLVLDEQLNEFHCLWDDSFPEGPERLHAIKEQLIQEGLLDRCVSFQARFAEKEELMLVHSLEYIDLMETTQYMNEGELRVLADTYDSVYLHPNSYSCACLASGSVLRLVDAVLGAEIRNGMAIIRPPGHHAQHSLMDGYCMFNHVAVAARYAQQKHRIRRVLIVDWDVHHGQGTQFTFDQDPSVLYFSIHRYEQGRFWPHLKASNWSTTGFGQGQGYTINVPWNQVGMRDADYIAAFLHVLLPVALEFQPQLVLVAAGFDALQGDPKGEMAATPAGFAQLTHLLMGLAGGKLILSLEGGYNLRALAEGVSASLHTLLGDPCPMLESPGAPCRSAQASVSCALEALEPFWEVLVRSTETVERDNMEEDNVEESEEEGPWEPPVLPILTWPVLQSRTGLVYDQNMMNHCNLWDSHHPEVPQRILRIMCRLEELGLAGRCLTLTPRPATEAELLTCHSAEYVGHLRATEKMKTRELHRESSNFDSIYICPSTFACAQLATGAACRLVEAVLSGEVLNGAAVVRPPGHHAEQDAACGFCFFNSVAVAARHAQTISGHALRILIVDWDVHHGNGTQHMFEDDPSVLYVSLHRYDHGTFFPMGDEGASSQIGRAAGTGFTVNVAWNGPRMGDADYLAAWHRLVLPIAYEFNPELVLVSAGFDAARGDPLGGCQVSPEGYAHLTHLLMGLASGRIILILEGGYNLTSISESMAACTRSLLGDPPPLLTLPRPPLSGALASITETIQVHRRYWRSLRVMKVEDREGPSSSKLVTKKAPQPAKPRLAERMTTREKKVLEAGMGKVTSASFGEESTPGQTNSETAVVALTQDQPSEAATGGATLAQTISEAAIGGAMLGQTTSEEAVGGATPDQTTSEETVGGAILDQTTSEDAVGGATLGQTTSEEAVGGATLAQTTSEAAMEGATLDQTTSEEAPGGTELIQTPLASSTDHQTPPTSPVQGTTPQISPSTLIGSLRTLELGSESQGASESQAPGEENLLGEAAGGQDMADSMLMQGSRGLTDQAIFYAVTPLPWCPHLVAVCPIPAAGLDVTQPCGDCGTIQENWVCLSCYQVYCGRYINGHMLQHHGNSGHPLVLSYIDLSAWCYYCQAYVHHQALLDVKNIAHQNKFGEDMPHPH

[2] = tested on: Mus musculus; experiment: Anti-pulmonary fibrosis activity in bleomycin-induced idiopathic pulmonary fibrosis C57BL/6J mouse model assessed as decrease in lung damage by measuring decrease in collagen deposition in lungs at 25 to 50 mg/kg, ig administered daily via gavage and measured on day 14 by Masson's trichrome staining based analysis; assay type: functional, organism-based; conditions: dose 25-50 mg/kg, time 14.0 day
[3] = Toxicity against silicosis C57BL/6J mouse model assessed as AST index in serum at 50 mg/kg, ig administered daily via gavage and measured on day 28; assay type: organism-based; conditions: in vivo, po, 672 h, time 28 day
[4] = target: Histone deacetylase 2 (Homo sapiens, UniProt Q92769); experiment: Inhibition of HDAC2 (unknown origin) incubated for 30 mins by fluorometric analysis
Chain of Histone deacetylase 2 (Q92769 whole entry): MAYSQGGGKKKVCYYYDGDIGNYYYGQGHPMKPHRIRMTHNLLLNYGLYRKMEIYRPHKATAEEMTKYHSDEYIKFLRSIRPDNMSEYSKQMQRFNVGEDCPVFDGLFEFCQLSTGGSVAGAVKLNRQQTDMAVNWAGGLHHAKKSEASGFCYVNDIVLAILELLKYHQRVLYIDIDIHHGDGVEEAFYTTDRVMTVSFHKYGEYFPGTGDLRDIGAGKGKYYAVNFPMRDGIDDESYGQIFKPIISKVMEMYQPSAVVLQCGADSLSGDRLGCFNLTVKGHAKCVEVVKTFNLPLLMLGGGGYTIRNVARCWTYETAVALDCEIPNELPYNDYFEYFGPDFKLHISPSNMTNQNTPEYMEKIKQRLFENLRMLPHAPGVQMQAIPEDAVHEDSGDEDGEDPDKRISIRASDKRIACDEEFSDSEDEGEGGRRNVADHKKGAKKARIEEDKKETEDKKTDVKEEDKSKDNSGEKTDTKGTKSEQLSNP

[5] = Toxicity against bleomycin-induced pulmonary fibrosis C57BL/6J mouse model assessed as effect on liver morphological changes at 25 to 50 mg/kg, ig administered daily via gavage and measured on day 14 by Hematoxylin-Eosin staining based analysis; assay type: organism-based; conditions: in vivo, po, 336 h, dose 25-50 mg/kg, time 14 day
[6] = tested on: Mus musculus; experiment: Anti-pulmonary fibrosis activity in bleomycin-induced idiopathic pulmonary fibrosis C57BL/6J mouse model assessed as decrease in weight loss at 50 mg/kg, ig administered daily via gavage and measured for 14 days; assay type: functional, organism-based; conditions: time 14.0 day
[7] = tested on: Mus musculus; experiment: Anti-pulmonary fibrosis activity in bleomycin-induced idiopathic pulmonary fibrosis C57BL/6J mouse model assessed as decrease in collagen I protein expression in lung at 25 mg/kg, ig administered daily via gavage measured after 14 days by western blot analysis; assay type: functional, organism-based; conditions: time 14.0 day
[8] = target: T2, Protein deacetylase HDAC6 (Mus musculus) (UniProt Q9Z2V5); experiment: In vivo inhibition of HDAC6 in bleomycin-induced idiopathic pulmonary fibrosis C57BL/6J mouse model assessed as increase in acetylated alpha-tubulin level in lung at 25 mg/kg, ig administered via gavage and measured on day 14 by western blot analysis; assay type: functional, organism-based; conditions: time 14.0 day
T2 sequence (whole entry): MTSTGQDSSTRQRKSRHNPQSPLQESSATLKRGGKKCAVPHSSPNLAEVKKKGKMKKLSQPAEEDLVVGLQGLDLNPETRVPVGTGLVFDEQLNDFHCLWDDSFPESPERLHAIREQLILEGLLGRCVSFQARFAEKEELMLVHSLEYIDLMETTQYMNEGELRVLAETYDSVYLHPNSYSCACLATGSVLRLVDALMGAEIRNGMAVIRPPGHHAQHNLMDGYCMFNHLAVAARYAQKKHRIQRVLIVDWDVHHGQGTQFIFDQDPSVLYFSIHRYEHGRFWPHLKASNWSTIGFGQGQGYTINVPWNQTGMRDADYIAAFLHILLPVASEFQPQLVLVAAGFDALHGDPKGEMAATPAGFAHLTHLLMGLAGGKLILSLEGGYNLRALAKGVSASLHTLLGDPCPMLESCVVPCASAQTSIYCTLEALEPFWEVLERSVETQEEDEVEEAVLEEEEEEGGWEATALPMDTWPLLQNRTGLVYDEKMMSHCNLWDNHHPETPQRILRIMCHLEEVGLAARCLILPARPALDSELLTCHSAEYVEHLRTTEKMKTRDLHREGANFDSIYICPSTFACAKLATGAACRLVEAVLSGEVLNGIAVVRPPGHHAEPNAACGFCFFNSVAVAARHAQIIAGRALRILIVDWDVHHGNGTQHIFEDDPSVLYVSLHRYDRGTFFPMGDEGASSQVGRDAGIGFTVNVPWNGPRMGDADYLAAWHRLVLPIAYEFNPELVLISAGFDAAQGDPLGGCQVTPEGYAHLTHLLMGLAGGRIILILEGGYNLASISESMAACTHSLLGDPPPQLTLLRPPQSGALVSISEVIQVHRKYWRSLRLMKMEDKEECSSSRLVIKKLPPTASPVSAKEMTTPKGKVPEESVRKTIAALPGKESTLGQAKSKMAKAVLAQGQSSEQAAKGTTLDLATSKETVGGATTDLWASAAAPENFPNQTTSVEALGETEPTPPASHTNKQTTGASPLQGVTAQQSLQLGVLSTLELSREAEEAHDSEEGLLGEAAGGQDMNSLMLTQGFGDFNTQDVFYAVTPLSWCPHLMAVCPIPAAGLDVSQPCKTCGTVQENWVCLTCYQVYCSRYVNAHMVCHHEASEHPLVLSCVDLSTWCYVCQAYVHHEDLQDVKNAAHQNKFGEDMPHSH

- IC50 [4]: 642 nM
- inhibition [8]: inactive
Compound: O=C(NO)c1ccc(CN2C(=O)C3=C(CCN(Cc4cccc(Cl)c4)C3)N3CCN=C23)cc1
- inhibition [1]: Active; Intensity Of Increase Slightly Lower Than Positive Drug, Acy-1215
- Activity [2]: Active
- Activity [3]: Non-toxic
- Activity [5]: Non-toxic
- Activity [6]: Active
- Activity [7]: Active; Superior Activity Compared To Positive Drug, Acy-1215
